Experimental data from patent US6844353B2, “Fungicidal properties of sampangine and its analogs to agriculturally important fungal plant pathogens” (The United States of America as represented by the …, priority 2003, dated 2005).
Where two headings read alike, the source gives them in different places.

Tests used:
Test in all cases: 96-well microtiter plate assay, fungal growth inhibition
C. fragariae = format: cell-based, Colletotrichum fragariae; conditions: for Percent inhibition−Percent Stimulation±SEM: C. fragariae; for inhibition at 0.3 µM / inhibition at 3 µM / inhibition at 30 µM: Colletotrichum fragariae, read-out: Percent inhibition−Percent Stimulation±SEM
Description: (§1) Pathogen production. Isolates of Colletotrichum acutatum Simmonds, Colletotrichum fragariae Brooks, and Colletotrichum gloeosporioides (Penz.) Penz. & Sacc. in Penz. were obtained from B. J. Smith, USDA, ARS, Small Fruit Research Station, Poplarville, Miss. Colletotrichum fragariae (isolate CF63), C. acutatum (isolate CAGoff), and C. gloeosporioides (isolate CG162) were used for all pathogen and bioautography studies. Isolate CF63 is one of the most virulent isolates at infecting strawberry plants and inducing both crown and fruit rot (Smith and Black, 1990). CF63, CAGoff, and CG162 were used as standard test isolates because of our extensive knowledge of these isolates and their known fungicide sensitivity profiles in both bioautography and microtiter formats. The three Colletotrichum species were isolated from strawberry (Fragaria x ananassa Duchesne). Botrytis cinerea Pers.: Fr, was isolated from commercial grape (Vitis vinifera L.) and Fusarium oxysporum Schlechtend: Fr from orchid (Cynoches sp.). Phomopsis viticola (Sacc.) and P. obscurans (Ellis & Everh.) Sutton were from Mike A. Ellis, Ohio State University, Wooster, Ohio. Fungi were grown on potato-dextrose agar (PDA, Difco, Detroit, Mich.) in 9 cm petri dishes and incubated in a growth chamber at 24±2° C. and under cool-white fluorescent lights ([…]·m^−2·sec^−1 light) with 12 hour photoperiod.
(§2) Inoculum preparation. Conidia were harvested from 7-10 day-old cultures by flooding plates with 5 mL of sterile distilled water and dislodging conidia by softly brushing the colonies with an L-shaped glass rod. Conidial suspensions were filtered through sterile miracloth (Calbiochem-Novabiochem Corp., La Jolla, Calif.) to remove mycelia. Conidia concentrations were determined photometrically, from a standard curve based on the percent of transmittance (% T) at 625 nm and suspensions were then adjusted with sterile distilled water to a concentration of 1.0×10^6 conidia/mL.
(§3) Microtiter assay. A standardized 96-well microtiter plate assay developed for discovery of natural product fungicidal agents was used to evaluate naturally occurring antifungal agents from Macaranga monanara. A 96-well microtiter assay was used to determine sensitivity of B. cinerea, C. acutatum, C. fragariae, C. gloeosporioides, F. oxysporum, Phomopsis viticola, and P. obscurans to the various antifungal agents in comparison with known fungicidal standards. Vinclozolin, captan, and thiabendazole, which represent three different modes of action, were used as standards in this experiment. Each fungus was challenged in a dose-response format using test compounds where the final treatment concentrations were 0.3, 3.0 and 30.0 μM. Microtiter plates (Nunc MicroWell, untreated; Roskilde, Denmark) were covered with a plastic lid and incubated in a growth chamber as described previously for fungal growth. Growth was then evaluated by measuring absorbance of each well at 620 nm using a microplate photometer (Packard Spectra Count, Packard Instrument Co., Downers Grove, Ill.). Microtiter plates (Nunc MicroWell, untreated; Roskilde, Denmark) were covered with a plastic lid and incubated in a growth chamber at 24±1° C. and 12 hour photoperiod under 60±5 μmol light. Growth was then evaluated by measuring absorbance of each well at 620 nm using a microplate photometer (Packard Spectra Count, Packard Instrument Co., Downers Grove, Ill.).
(§4) Microbioassy Experimental Design. Chemical sensitivity each of B. cinerea, C. acutatum, C. fragariae, C. gloeosporiodes, F. oxysporum, Phomopsis viticola, and P. obscurans was evaluated using 96-well plate microbioassay format. Each chemical was evaluated in duplicate at each dose (0.3, 3.0 and 30.0 μM). […]

B. cinerea = format: cell-based, Botrytis cinerea; conditions: for Percent inhibition−Percent Stimulation±SEM: B. cinerea; for inhibition at 0.3 µM / inhibition at 3 µM / inhibition at 30 µM: Botrytis cinerea, read-out: Percent inhibition−Percent Stimulation±SEM
Description: as §1, §2, §3, §4

C. acutatum = format: cell-based, Colletotrichum acutatum; conditions: for Percent inhibition−Percent Stimulation±SEM: C. acutatum; for inhibition at 0.3 µM / inhibition at 3 µM / inhibition at 30 µM: Colletotrichum acutatum, read-out: Percent inhibition−Percent Stimulation±SEM
Description: as §1, §2, §3, §4

C. gloeosporioides = format: cell-based, Colletotrichum gloeosporioides; conditions: for Percent inhibition−Percent Stimulation±SEM: C. gloeosporioides; for inhibition at 0.3 µM / inhibition at 3 µM / inhibition at 30 µM: Colletotrichum gloeosporioides, read-out: Percent inhibition−Percent Stimulation±SEM
Description: as §1, §2, §3, §4

F. oxysporum = format: cell-based, Fusarium oxysporum; conditions: for Percent inhibition−Percent Stimulation±SEM: F. oxysporum; for inhibition at 0.3 µM / inhibition at 3 µM / inhibition at 30 µM: Fusarium oxysporum, read-out: Percent inhibition−Percent Stimulation±SEM
Description: as §1, §2, §3, §4

## CO/N=C(/C(=O)OC)c1ccccc1COc1ccccc1C [BAS 490]
C. fragariae; 0.3 μM, 48 hrs
  Percent inhibition−Percent Stimulation±SEM: −68.8 ± 7.1%
C. fragariae; 0.3 μM, 72 hrs
  Percent inhibition−Percent Stimulation±SEM: −35.6 ± 5.6%
C. fragariae; 3.0 μM, 48 hrs
  Percent inhibition−Percent Stimulation±SEM: −86.4 ± 3.5%
C. fragariae; 3.0 μM, 72 hrs
  Percent inhibition−Percent Stimulation±SEM: −71.9 ± 3.5%
C. fragariae; 30 μM, 48 hrs
  Percent inhibition−Percent Stimulation±SEM: −91.5 ± 1.7%
C. fragariae; 30 μM, 72 hrs
  Percent inhibition−Percent Stimulation±SEM: −80.4 ± 1.4%
B. cinerea; 0.3 μM, 48 hrs
  Percent inhibition−Percent Stimulation±SEM: −71.3 ± 28.0%
B. cinerea; 0.3 μM, 72 hrs
  Percent inhibition−Percent Stimulation±SEM: −66.6 ± 21.5%
B. cinerea; 3.0 μM, 48 hrs
  Percent inhibition−Percent Stimulation±SEM: −24.0 ± 32.0%
B. cinerea; 3.0 μM, 72 hrs
  Percent inhibition−Percent Stimulation±SEM: −37.2 ± 20.2%
B. cinerea; 30 μM, 48 hrs
  Percent inhibition−Percent Stimulation±SEM: −60.1 ± 32.9%
B. cinerea; 30 μM, 72 hrs
  Percent inhibition−Percent Stimulation±SEM: −40.9 ± 17.6%
C. acutatum; 0.3 μM, 48 hrs
  Percent inhibition−Percent Stimulation±SEM: −63.9 ± 3.8%
C. acutatum; 0.3 μM, 72 hrs
  Percent inhibition−Percent Stimulation±SEM: −17.8 ± 3.5%
C. acutatum; 3.0 μM, 48 hrs
  Percent inhibition−Percent Stimulation±SEM: −93.1 ± 0.6%
C. acutatum; 3.0 μM, 72 hrs
  Percent inhibition−Percent Stimulation±SEM: 14.7 ± 2.5%
C. acutatum; 30 μM, 48 hrs
  Percent inhibition−Percent Stimulation±SEM: −95.1 ± 0.7%
C. acutatum; 30 μM, 72 hrs
  Percent inhibition−Percent Stimulation±SEM: −69.9 ± 2.6%
C. gloeosporioides; 0.3 μM, 48 hrs
  Percent inhibition−Percent Stimulation±SEM: −83.3 ± 3.2%
C. gloeosporioides; 0.3 μM, 72 hrs
  Percent inhibition−Percent Stimulation±SEM: −58.7 ± 5.0%
C. gloeosporioides; 3.0 μM, 48 hrs
  Percent inhibition−Percent Stimulation±SEM: −92.4 ± 1.5%
C. gloeosporioides; 3.0 μM, 72 hrs
  Percent inhibition−Percent Stimulation±SEM: −82.6 ± 3.4%
C. gloeosporioides; 30 μM, 48 hrs
  Percent inhibition−Percent Stimulation±SEM: −97.5 ± 1.0%
C. gloeosporioides; 30 μM, 72 hrs
  Percent inhibition−Percent Stimulation±SEM: −89.7 ± 1.9%
F. oxysporum; 0.3 μM, 48 hrs
  Percent inhibition−Percent Stimulation±SEM: −82.3 ± 3.0%
F. oxysporum; 0.3 μM, 72 hrs
  Percent inhibition−Percent Stimulation±SEM: −30.3 ± 6.9%
F. oxysporum; 3.0 μM, 48 hrs
  Percent inhibition−Percent Stimulation±SEM: −92.7 ± 0.6%
F. oxysporum; 3.0 μM, 72 hrs
  Percent inhibition−Percent Stimulation±SEM: −65.5 ± 1.6%
F. oxysporum; 30 μM, 48 hrs
  Percent inhibition−Percent Stimulation±SEM: −94.7 ± 0.5%
F. oxysporum; 30 μM, 72 hrs
  Percent inhibition−Percent Stimulation±SEM: −69.5 ± 2.0%

## CCCCNC(=O)n1c(NC(=O)OC)nc2ccccc21 [Benomyl]
C. fragariae; 48 h
  inhibition at 0.3 µM: 51.5 ± 5%
  inhibition at 3 µM: 89.6 ± 1.2%
  inhibition at 30 µM: 92.4 ± 1.1%
C. fragariae; 72 h
  inhibition at 0.3 µM: 36.8 ± 4.4%
  inhibition at 3 µM: 92.7 ± 1%
  inhibition at 30 µM: 94.3 ± 0.9%
B. cinerea; 48 h
  inhibition at 0.3 µM: 50 ± 26.9%
  inhibition at 3 µM: 21.6 ± 27.3%
  inhibition at 30 µM: 39.9 ± 20.4%
B. cinerea; 72 h
  inhibition at 0.3 µM: 71.2 ± 25.1%
  inhibition at 3 µM: 40.9 ± 22%
  inhibition at 30 µM: 47.3 ± 14.9%
C. acutatum; 48 h
  inhibition at 0.3 µM: 24.6 ± 6.1%
  inhibition at 3 µM: 20.3 ± 4.8%
  inhibition at 30 µM: 16.6 ± 6.3%
C. acutatum; 72 h
  inhibition at 0.3 µM: -7.7 ± 6.6%
  inhibition at 3 µM: 47.7 ± 4.1%
  inhibition at 30 µM: -15.2 ± 3.7%
C. gloeosporioides; 48 h
  inhibition at 0.3 µM: 47.5 ± 9.2%
  inhibition at 3 µM: 84.2 ± 3.8%
  inhibition at 30 µM: 82.4 ± 4%
C. gloeosporioides; 72 h
  inhibition at 0.3 µM: 16.1 ± 6.5%
  inhibition at 3 µM: 59.9 ± 9.6%
  inhibition at 30 µM: 44.8 ± 8.6%
F. oxysporum; 48 h
  inhibition at 0.3 µM: 3.3 ± 4.7%
  inhibition at 3 µM: 12 ± 3%
  inhibition at 30 µM: 86.3 ± 1.6%
F. oxysporum; 72 h
  inhibition at 0.3 µM: -1.6 ± 3.2%
  inhibition at 3 µM: 0.8 ± 3.5%
  inhibition at 30 µM: 77.2 ± 2.3%
